Results reported in publication PMC6264117, “Label-Free Time-Gated Luminescent Detection Method for the Nucleotides with Varying Phosphate Content” (Sensors (Basel, Switzerland), 2018).

Molecular target: T1, K-Ras (Homo sapiens, UniProt P01116)
T1 construct: gene KRAS; res; 2-188; with SOS^cat (res. 564-1049); p120GAP (res. 714-1047) in the cycling assay
Assay: Label-free Tb(III) luminescence GTPase cycling assay (Probe […]); confirmed by QRET and by SOS^cat nucleotide exchange assays (IC50 […])
Type: biochemical

T1 sequence (Q07889 564-1049): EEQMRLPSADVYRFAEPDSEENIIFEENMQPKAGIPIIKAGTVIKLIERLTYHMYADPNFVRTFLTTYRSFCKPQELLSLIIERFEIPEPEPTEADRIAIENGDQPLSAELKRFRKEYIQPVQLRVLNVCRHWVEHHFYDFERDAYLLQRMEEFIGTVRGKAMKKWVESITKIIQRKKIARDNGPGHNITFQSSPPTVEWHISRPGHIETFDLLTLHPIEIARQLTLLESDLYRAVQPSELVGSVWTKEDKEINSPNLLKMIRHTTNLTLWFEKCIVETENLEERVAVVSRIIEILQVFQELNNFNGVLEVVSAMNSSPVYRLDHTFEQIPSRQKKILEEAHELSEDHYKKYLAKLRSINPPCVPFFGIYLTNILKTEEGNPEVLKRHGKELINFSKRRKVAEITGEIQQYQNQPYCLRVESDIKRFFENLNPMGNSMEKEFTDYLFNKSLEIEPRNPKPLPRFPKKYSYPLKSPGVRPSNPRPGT
T1 sequence (P20936 714-1047, further chain): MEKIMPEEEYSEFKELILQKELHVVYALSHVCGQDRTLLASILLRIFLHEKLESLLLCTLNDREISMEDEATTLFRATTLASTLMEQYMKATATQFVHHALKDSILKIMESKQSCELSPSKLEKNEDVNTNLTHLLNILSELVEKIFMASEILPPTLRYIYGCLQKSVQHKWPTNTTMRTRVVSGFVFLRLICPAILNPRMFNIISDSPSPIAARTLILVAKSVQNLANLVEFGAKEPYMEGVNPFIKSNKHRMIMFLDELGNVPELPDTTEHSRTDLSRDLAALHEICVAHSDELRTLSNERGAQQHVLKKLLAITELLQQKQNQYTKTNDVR
T1 sequence (P01116 2-188): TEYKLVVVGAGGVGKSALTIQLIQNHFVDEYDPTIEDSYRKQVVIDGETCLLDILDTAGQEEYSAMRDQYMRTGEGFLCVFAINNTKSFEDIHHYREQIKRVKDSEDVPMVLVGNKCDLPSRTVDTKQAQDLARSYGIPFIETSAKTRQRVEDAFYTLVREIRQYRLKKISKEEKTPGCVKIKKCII

Cc1[nH]c2cc(Cl)cc(Cl)c2c1CCN [DCAI, 2-(4,6-dichloro-2-methyl-1h-indol-3-yl)ethanamine]
IC50: 158 ± 13 µM
